In general, EC50 refers to the concentration giving half of the maximal effect.

Structures are written as SMILES.

This note sets out measurements from patent publication US10968225B2, “Compounds and compositions for the treatment of cystic fibrosis” (Fondazione Istituto Italiano Di Tecnologia, priority 2017, dated 2021).

T1 sequence (P13569 with tags, fused parts or gaps DEL508-508): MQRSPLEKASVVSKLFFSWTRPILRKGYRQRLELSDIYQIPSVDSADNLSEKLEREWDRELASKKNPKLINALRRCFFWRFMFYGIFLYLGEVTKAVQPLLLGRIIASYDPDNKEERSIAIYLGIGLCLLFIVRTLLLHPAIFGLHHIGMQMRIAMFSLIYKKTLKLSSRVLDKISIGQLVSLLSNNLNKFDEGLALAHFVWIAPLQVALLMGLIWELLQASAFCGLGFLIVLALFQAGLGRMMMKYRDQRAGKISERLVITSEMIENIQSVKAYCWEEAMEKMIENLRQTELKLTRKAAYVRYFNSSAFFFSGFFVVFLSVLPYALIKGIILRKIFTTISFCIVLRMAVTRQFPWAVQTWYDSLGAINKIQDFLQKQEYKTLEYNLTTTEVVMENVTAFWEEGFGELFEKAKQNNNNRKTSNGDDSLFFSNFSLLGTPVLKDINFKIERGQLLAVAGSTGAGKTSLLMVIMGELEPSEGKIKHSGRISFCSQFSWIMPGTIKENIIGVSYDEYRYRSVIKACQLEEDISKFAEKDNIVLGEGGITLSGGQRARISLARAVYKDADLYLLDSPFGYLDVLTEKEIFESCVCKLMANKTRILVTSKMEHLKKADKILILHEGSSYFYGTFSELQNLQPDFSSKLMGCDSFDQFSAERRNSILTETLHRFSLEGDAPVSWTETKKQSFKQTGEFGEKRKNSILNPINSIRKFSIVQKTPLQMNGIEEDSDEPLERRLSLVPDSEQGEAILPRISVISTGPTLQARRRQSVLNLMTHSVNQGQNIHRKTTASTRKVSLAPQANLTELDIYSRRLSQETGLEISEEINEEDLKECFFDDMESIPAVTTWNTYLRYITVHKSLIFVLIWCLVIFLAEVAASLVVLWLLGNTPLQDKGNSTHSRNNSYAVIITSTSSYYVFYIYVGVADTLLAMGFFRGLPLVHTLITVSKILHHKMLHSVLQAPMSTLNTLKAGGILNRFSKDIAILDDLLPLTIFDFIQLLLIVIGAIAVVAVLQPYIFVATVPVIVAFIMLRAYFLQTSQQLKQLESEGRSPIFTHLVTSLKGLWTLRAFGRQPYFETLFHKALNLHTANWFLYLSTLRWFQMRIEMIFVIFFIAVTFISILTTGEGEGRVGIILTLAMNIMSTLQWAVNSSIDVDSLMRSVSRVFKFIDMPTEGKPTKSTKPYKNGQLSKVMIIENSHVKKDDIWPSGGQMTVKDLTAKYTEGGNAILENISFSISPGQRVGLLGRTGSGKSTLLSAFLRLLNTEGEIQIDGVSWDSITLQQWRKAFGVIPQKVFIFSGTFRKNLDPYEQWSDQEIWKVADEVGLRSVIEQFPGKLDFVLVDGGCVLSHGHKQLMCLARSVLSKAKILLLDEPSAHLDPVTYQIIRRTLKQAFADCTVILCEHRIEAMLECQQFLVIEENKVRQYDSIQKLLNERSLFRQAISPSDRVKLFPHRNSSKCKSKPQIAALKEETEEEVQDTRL

The assay concerns the target T1, mutant CFTR (Homo sapiens, UniProt P13569, DEL508-508).
T1 construct: expressed in transfected cells
Put plainly: Fluorescence (HS-YFP) assay for CFTR activity, corrector assay. Particulars: CFBE41o- and FRT cells with stable expression of mutant CFTR, read-out: activity (EC50). In kind it is cell-based.
As to `COc1ncc(NC(=O)c2cccc(-n3nc(C(F)(F)F)c4c3CCN(C(=O)C(C)(C)C)C4)c2)cn1` [Compound 081, 3-[5-(2,2-Dimethylpropanoyl)-3-(trifluoromethyl)-6,7-dihydro-4H-pyrazolo[4,3-c]pyridin-1-yl]-N-(2-methoxypyrimidin-5-yl)benzamide], the EC50 is greater than 2 µM.

On to `Cc1nn(CCC(=O)OC(C)(C)C)c(C)c1S(=O)(=O)N1CCc2c(c(C(F)(F)F)nn2-c2cccc(C(=O)N(C)c3ccc4c(c3)OCO4)c2)C1` [Compound 082, tert-Butyl 3-[4-[[1-[3-[1,3-benzodioxol-5-yl(methyl)carbamoyl]phenyl]-3-(trifluoromethyl)-6,7-dihydro-4H-pyrazolo[4,3-c]pyridin-5-yl]sulfonyl]-3,5-dimethyl-pyrazol-1-yl]propanoate], for which the EC50 is less than 1 µM.

In the case of `COc1cc(NC(=O)c2cccc(-n3nc(C(F)(F)F)c4c3CCN(C(=O)C(C)(C)C)C4)c2)ccn1` [Compound 083, 3-[5-(2,2-Dimethylpropanoyl)-3-(trifluoromethyl)-6,7-dihydro-4Hpyrazolo[4,3-c]pyridin-1-yl]-N-(2-methoxy-4-pyridyl)benzamide], the concentration giving a half-maximal response (EC50) is greater than 2 µM.

As to `Cc1cn2cc(NC(=O)c3cccc(-n4nc(C(F)(F)F)c5c4CCN(C(=O)C(C)(C)C)C5)c3)ccc2n1` [Compound 084, 3-[5-(2,2-Dimethylpropanoyl)-3-(trifluoromethyl)-6,7-dihydro-4H-pyrazolo[4,3-c]pyridin-1-yl]-N-(2-methylimidazo [1,2-a]pyridin-6-yl)benzamide], the EC50 is greater than 2 µM.

As for `COc1ccc(N(C)C(=O)c2cccc(-n3nc(C(F)(F)F)c4c3CCN(C(=O)C(C)(C)C)C4)c2)cn1` [Compound 085, 3-[5-(2,2-Dimethylpropanoyl)-3-(trifluoromethyl)-6,7-dihydro-4Hpyrazolo[4,3-c]pyridin-1-yl]-N-(6-methoxy-3-pyridyl)-N-methylbenzamide], the EC50 was less than 1 µM.

Turning to `Cc1nn(CCC(=O)O)c(C)c1S(=O)(=O)N1CCc2c(c(C(F)(F)F)nn2-c2cccc(C(=O)N(C)c3ccc4c(c3)OCO4)c2)C1` [Compound 086, 3-[4-[[1-[3-[1,3-Benzodioxol-5-yl(methyl)carbamoyl]phenyl]-3-(trifluoromethyl)-6,7-dihydro-4H-pyrazolo[4,3-c]pyridin-5-yl]sulfonyl]-3,5-dimethyl-pyrazol-1-yl] propanoic acid], the EC50 is less than 1 µM.

In the case of `Cc1[nH]nc(C(=O)O)c1S(=O)(=O)N1CCc2c(c(C(F)(F)F)nn2-c2cccc(C(=O)N(C)c3ccc4c(c3)OCO4)c2)C1` [Compound 089, 4-[[1-[3-[1,3-Benzodioxol-5-yl(methyl)carbamoyl]phenyl]-3-(trifluoromethyl)-6,7-dihydro-4H-pyrazolo[4,3-c]pyridin-5-yl]sulfonyl]-5-methyl-1H-pyrazole-3-carboxylic acid], the EC50 was less than 1 µM.

With `COc1cc(N(C)C(=O)c2cccc(-n3nc(C(F)(F)F)c4c3CCN(C(=O)C(C)(C)C)C4)c2)ccn1` [Compound 090, 3-[5-(2,2-Dimethylpropanoyl)-3-(trifluoromethyl)-6,7-dihydro-4H-pyrazolo[4,3-c]pyridin-1-yl]-N-(2-methoxy-4-pyridyl)-N-methyl-benzamide], the half-maximal effective concentration (EC50) was less than 1 µM.

As to `Cc1cn2cc(N(C)C(=O)c3cccc(-n4nc(C(F)(F)F)c5c4CCN(C(=O)C(C)(C)C)C5)c3)ccc2n1` [Compound 091, 3-[5-(2,2-Dimethylpropanoyl)-3-(trifluoromethyl)-6,7-dihydro-4H-pyrazolo[4,3-c]pyridin-1-yl]-N-methyl-N-(2-methylimidazo[1,2-a]pyridin-6-yl)benzamide], the concentration for a half-maximal effect (EC50) fell in the range of 1 to 2 µM.

As to `Cc1noc(C)c1S(=O)(=O)N1CCc2c(c(C(F)(F)F)nn2-c2cccc(C(=O)N(C)c3ccc4c(c3)OC(F)(F)O4)c2)C1` [Compound 096, N-(2,2-Difluoro-1,3-benzodioxol-5-yl)-3-[5-(3,5-dimethylisoxazol-4-yl)sulfonyl-3-(trifluoromethyl)-6,7-dihydro-4H-pyrazolo[4,3-c]pyridin-1-yl]-N-methyl-benzamide], the EC50 is less than 1 µM.

As for `CC(C)c1nn(-c2cccc(C(=O)N(C)c3ccc4c(c3)OC(F)(F)O4)c2)c2c1CCCC2` [Compound 102, N-(2,2-difluoro-1,3-benzodioxol-5-yl)-3-(3-isopropyl-4,5,6,7-tetrahydroindazol-1-yl)-N-methyl-benzamide], the 50% effective concentration (EC50) lay within 1 to 2 µM.

On to `Cc1nn(-c2cccc(C(=O)N(C)c3ccc4c(c3)OC(F)(F)O4)c2)c2c1CCCC2` [Compound 103, N-(2,2-Difluoro-1,3-benzodioxol-5-yl)-N-methyl-3-(3-methyl-4,5,6,7-tetrahydroindazol-1-yl)benzamide], for which the EC50 was greater than 2 µM.

Regarding `CN(C(=O)c1cccc(-n2nc(C(F)(F)F)c3c2C(Oc2ccc(C(=O)O)cc2)CCC3)c1)c1ccc2c(c1)OC(F)(F)O2` (centres unmarked) [Compound 109, 4-[[1-[3-[(2,2-Difluoro-1,3-benzodioxol-5-yl)-methyl-carbamoyl]phenyl]-3-(trifluoromethyl)-4,5,6,7-tetrahydroindazol-7-yl]oxy]benzoic acid], the EC50 was less than 1 µM.

For `Cc1nn(-c2cccc(C(=O)N(C)c3ccc4c(c3)OCO4)c2)c2c1CCCC2` [Compound 132, N-(1,3-Benzodioxol-5-yl)-N-methyl-3-(3-methyl-4,5,6,7-tetrahydroindazol-1-yl)benzamide], the EC50 lay in the range of 1 to 2 µM.

As to `CC(C)c1nn(-c2cccc(C(=O)N(C)c3ccc4c(c3)OCO4)c2)c2c1CCCC2` [Compound 133, N-(1,3-Benzodioxol-5-yl)-3-(3-isopropyl-4,5,6,7-tetrahydroindazol-1-yl)-N-methyl-benzamide], the 50% effective concentration (EC50) is less than 1 µM.

Turning to `CN(C(=O)c1cccc(-n2nc(C(F)(F)F)c3c2CCN(CCCC(=O)O)C3)c1)c1ccc2c(c1)OCO2` [Compound 135, 4-[1-[3-[1,3-Benzodioxol-5-yl(methyl)carbamoyl]phenyl]-3-(trifluoromethyl)-6,7-dihydro-4H-pyrazolo[4,3-c]pyridin-5-yl]butanoic acid], the EC50 was greater than 2 µM.

As to `Cc1nc2ccc(N(C)C(=O)c3cccc(-n4nc(C(F)(F)F)c5c4CCN(S(=O)(=O)c4c(C)noc4C)C5)c3)cc2o1` [Compound 137, 3-[5-(3,5-Dimethylisoxazol-4-yl)sulfonyl-3-(trifluoromethyl)-6,7-dihydro-4H-pyrazolo[4,3-c]pyridin-1-yl]-N-methyl-N-(2-methyl-1,3-benzoxazol-6-yl)benzamide], the concentration giving a half-maximal response (EC50) is less than 1 µM.

As to `Cc1nc2cc(F)c(N(C)C(=O)c3cccc(-n4nc(C(F)(F)F)c5c4CCN(S(=O)(=O)c4c(C)noc4C)C5)c3)cc2o1` [Compound 138, 3-[5-(3,5-Dimethylisoxazol-4-yl)sulfonyl-3-(trifluoromethyl)-6,7-dihydro-4H-pyrazolo[4,3-c]pyridin-1-yl]-N-(5-fluoro-2-methyl-1,3-benzoxazol-6-yl)-N-methyl-benzamide], the EC50 is less than 1 µM.

As for `CN(C(=O)c1cccc(-n2nc(C(F)(F)F)c3c2CCN(C2CC(C(=O)O)C2)C3)c1)c1ccc2c(c1)OCO2` (centres unmarked) [Compound 140, 3-[1-[3-[1,3-Benzodioxol-5-yl(methyl)carbamoyl]phenyl]-3-(trifluoromethyl)-6,7-dihydro-4H-pyrazolo[4,3-c]pyridin-5-yl]cyclobutanecarboxylic acid], the concentration giving a half-maximal response (EC50) is greater than 2 µM.

Take `CN(C(=O)c1cccc(-n2nc(C(F)(F)F)c3c2CCN(C(=O)C(C)(C)C)C3)c1)c1ccc2nccnc2c1` [Compound 141, 3-[5-(2,2-Dimethylpropanoyl)-3-(trifluoromethyl)-6,7-dihydro-4H-pyrazolo[4,3-c]pyridin-1-yl]-N-methyl-N-quinoxalin-6-yl-benzamide]: the concentration for a half-maximal effect (EC50) was less than 1 µM.

As to `COc1ncc(N(C)C(=O)c2cccc(-n3nc(C(F)(F)F)c4c3CCN(C(=O)C(C)(C)C)C4)c2)cn1` [Compound 142, 3-[5-(2,2-Dimethylpropanoyl)-3-(trifluoromethyl)-6,7-dihydro-4H-pyrazolo[4,3-c]pyridin-1-yl]-N-(2-methoxypyrimidin-5-yl)-N-methyl-benzamide], the half-maximal effective concentration (EC50) is greater than 2 µM.

Regarding `CN(C(=O)c1cccc(-n2nc(C(F)(F)F)c3c2C(Oc2ccc(C(=O)O)c(F)c2)CCC3)c1)c1ccc2c(c1)OC(F)(F)O2` (centres unmarked) [Compound 147, 2-Fluoro-4-[[1-[3-[(2,2-difluoro-1,3-benzodioxol-5-yl)-methyl-carbamoyl]phenyl]-3-(trifluoromethyl)-4,5,6,7-tetrahydroindazol-7-yl]oxy]benzoic acid], the EC50 was less than 1 µM.

`Cc1nc2cc(F)c(N(C)C(=O)c3cccc(-n4nc(C(F)(F)F)c5c4C(Oc4ccc(C(=O)O)cc4)CCC5)c3)cc2o1` (centres unmarked) [Compound 153, 4-[[1-[3-[(5-Fluoro-2-methyl-1,3-benzoxazol-6-yl)-methyl-carbamoyl]phenyl]-3-(trifluoromethyl)-4,5,6,7-tetrahydroindazol-7-yl]oxy]benzoic acid]: the EC50 was less than 1 µM.

Regarding `[2H]C([2H])([2H])N(C(=O)c1cccc(-n2nc(C(F)(F)F)c3c2C(Oc2ccc(C(=O)O)cc2)CCC3)c1)c1ccc2c(c1)OC(F)(F)O2` (centres unmarked) [Compound 155, 4-[[1-[3-[(2,2-Difluoro-1,3-benzodioxol-5-yl)-(trideuteriomethyl)carbamoyl]phenyl]-3-(trifluoromethyl)-4,5,6,7-tetrahydroindazol-7-yl]oxy]benzoic acid], the EC50 is less than 1 µM.

Take `Cc1nc2ccc(N(C)C(=O)c3cccc(-n4nc(C(F)(F)F)c5c4C(Oc4ccc(C(=O)O)cc4)CCC5)c3)cc2o1` (centres unmarked) [Compound 157, 4-[[1-[3-[Methyl-(2-methyl-1,3-benzoxazol-6-yl)carbamoyl]phenyl]-3-(trifluoromethyl)-4,5,6,7-tetrahydroindazol-7-yl]oxy]benzoic acid]: the concentration giving a half-maximal response (EC50) is less than 1 µM.

As to `Cc1nc2ncc(N(C)C(=O)c3cccc(-n4nc(C(F)(F)F)c5c4C(Oc4ccc(C(=O)O)cc4)CCC5)c3)cc2o1` (centres unmarked) [Compound 159, 4-[[1-[3-[Methyl-(2-methyloxazolo[4,5-b]pyridin-6-yl)carbamoyl]phenyl]-3-(trifluoromethyl)-4,5,6,7-tetrahydroindazol-7-yl]oxy]benzoic acid], the 50% effective concentration (EC50) was 1 to 2 µM.
